Source: patent publication US20110318426A1, “ANTIBACTERIAL AGENT AND METHOD OF USING THE SAME” (OSAKA MUNICIPAL TECHNICAL RESEARCH INSTITUTE, priority 2009, published 2011)

Assays:
Format in all cases: cell-based
[1] = test system: Staphyloccocus aureus (IAM112082); assay: MIC determination test (growth by absorbance at 620 nm)
Description: (§1) Then, the suspensions were centrifuged (5800×g, 30 min), whereby supernatants were obtained.
(§2) In each of the obtained LB culture media containing the antibacterial agents, 1 μL of Escherichia coli (IF03972), Staphyloccocus aureus (IAM112082), Pseudomonas aeruginosa (IAM11514), or Bacillus subtilis (IFO3215), which are microorganisms generally used in the evaluation of antibacterial properties, was inoculated and cultured at 27° C. for 5 days. Microplates (96-well microplates, available Falcon) were used for the culturing of the microorganisms, and the growth of the microorganisms was checked by determination of absorbance at 620 nm with a microplate reader (Multisckan Ascent available from Labsystems). As the microorganisms to be inoculated, those prepared as follows were used: microorganisms of each type were cultured under agitation at 27° C. for 18 hours in a 5 mL of an ordinary bouillon culture medium (available from Eiken Chemical Co., Ltd.), then, 1 mL of the same was sampled and centrifuged at 10000 rpm for 5 minutes, sediments were suspended in 1 ml of a 0.85% saline solution, and the suspension was diluted to 100 times.
as §1
(§3) In each of the obtained LB culture media containing the antibacterial agents, 1 μL of Staphyloccocus aureus or Bacillus subtilis was inoculated and cultured at 27° C. for 5 days. Microplates (96-well microplates, available Falcon) were used for the culturing of the microorganisms, and the growth of the microorganisms was checked by determination of absorbance at 620 nm with a microplate reader (Multisckan Ascent available from Labsystems). As the microorganisms to be inoculated, those prepared as follows were used: microorganisms of each type were cultured under agitation at 27° C. for 18 hours in a 5 mL of an ordinary bouillon culture medium (available from Eiken Chemical Co., Ltd.), then, 1 mL of the same was sampled and centrifuged at 10000 rpm for 5 minutes, sediments were suspended in 1 ml of a 0.85% saline solution, and the suspension was further diluted to 100 times.
as §1

[2] = test system: Escherichia coli (IF03972); assay: as above
Description: as §1, §2, §1, §3, §1

[3] = test system: Pseudomonas aeruginosa (IAM11514); assay: as above
Description: as §1, §2, §1, §3, §1

[4] = test system: Bacillus subtilis (IFO3215); assay: as above
Description: as §1, §2, §1, §3, §1

[5] = test system: Escherichia coli; assay: Bactericidal effect determination test (viable count, pour plate method); settings: for count of viable Escherichia coli: detection limit
Description: as §1
(§4) An Escherichia coli suspension, 20 μL, was added to each of the obtained LB culture media containing the antibacterial agents, whereby liquids for use in the bactericidal effect determination test were obtained. The liquids were sampled, 50 μL each, at the start, one hour later, three hours later, and 24 hours later, and each sample was added to 4.95 mL of a LP diluent. Each resultant was diluted at four steps, ten times each, and the count of viable bacteria in 1 mL of each diluted liquid was determined by the pour plate method. The Escherichia coli suspension used was a suspension obtained by culturing Escherichia coli under agitation at 27° C. for 18 hours in a 5 mL of an ordinary bouillon culture medium (available from Eiken Chemical Co., Ltd.), then, sampling 1 mL of the same and centrifuging the sample at 10000 rpm for 5 minutes, thereafter, suspending sediments in 1 ml of a 0.85% saline solution, and diluting the same to 10 times.
The suspension was agitated at 30° C. for 18 hours. Then, the suspension was centrifuged (5800×g, 30 min), whereby a supernatant, i.e., an LB culture medium containing an antibacterial agent, was prepared.
as §4, with “to” for “to each of”, “medium” for “media”, “agent,” for “agents,”, “liquid was” for “liquids were”, “start, 0.25 hour later,” for “start,”, “eight” for “24”

In the case of O.O.O.O.O.O=S(=O)([O-])[O-].[Cu+2] [copper ions, copper sulfate pentahydrate], the “antibacterial property when phosphorus-adsorbing material was mixed” value (shortened to “antibacterial property”) [1] is reported as “improved”, the “antibacterial property” value [2] is reported as “did not improve” and the “antibacterial property” value [3] is reported as “did not improve”. For the same compound, the “antibacterial property” value [4] was “improved”.

In the case of O=[N+]([O-])[O-].[Ag+] [silver ions, silver nitrate], the “viable Escherichia coli observed” value ([5]; silver ions 1 mg/L, 1% (W/V) of allophane) is reported as “only few Escherichia coli were observed”, the “count of viable Escherichia coli” value ([5]; silver ions 1 mg/L, 4% (W/V) of regenerated collagen powder) is reported as under 1000 cfu/ml and the “count of viable Escherichia coli” value ([5]; silver ions 1 mg/L, 4% or more of allophane) is reported as under 1000 cfu/ml. The “Count of viable bacteria” value ([5]; silver ions 1 mg/L, allophane 0% (W/V), time 0 h) was 10,800,000 cfu/mL, the “Count of viable bacteria” value ([5]; silver ions 1 mg/L, allophane 0% (W/V), time 1 h) was 14,900,000 cfu/mL and the “Count of viable bacteria” value ([5]; silver ions 1 mg/L, allophane 0% (W/V), time 3 h) was 3,930,000 cfu/mL. The “Count of viable bacteria” value ([5]; silver ions 1 mg/L, allophane 0% (W/V), time 24 h) was 95,000,000 cfu/mL, the “Count of viable bacteria” value ([5]; silver ions 1 mg/L, allophane 1% (W/V), time 0 h) was 10,800,000 cfu/mL and the “Count of viable bacteria” value ([5]; silver ions 1 mg/L, allophane 1% (W/V), time 1 h) was 52,000 cfu/mL. For the same compound, the “Count of viable bacteria” value ([5]; silver ions 1 mg/L, allophane 1% (W/V), time 3 h) was 3,500 cfu/mL, the “Count of viable bacteria” value ([5]; silver ions 1 mg/L, allophane 1% (W/V), time 24 h) was 2,600 cfu/mL and the “Count of viable bacteria” value ([5]; silver ions 1 mg/L, allophane 4% (W/V), time 0 h) was 10,800,000 cfu/mL. For the same compound, the “Count of viable bacteria” value ([5]; silver ions 1 mg/L, allophane 4% (W/V), time 1 h) was 1,100 cfu/mL, the “Count of viable bacteria” value ([5]; silver ions 1 mg/L, allophane 4% (W/V), time 3 h) was 1,000 or less cfu/mL and the “Count of viable bacteria” value ([5]; silver ions 1 mg/L, allophane 4% (W/V), time 24 h) was 1,000 or less cfu/mL. The “Count of viable bacteria” value ([5]; silver ions 1 mg/L, allophane 8% (W/V), time 0 h) was 10,800,000 cfu/mL, the “Count of viable bacteria” value ([5]; silver ions 1 mg/L, allophane 8% (W/V), time 1 h) was 1,000 or less cfu/mL and the “Count of viable bacteria” value ([5]; silver ions 1 mg/L, allophane 8% (W/V), time 3 h) was 1,000 or less cfu/mL. For the same compound, the “Count of viable bacteria” value ([5]; silver ions 1 mg/L, allophane 8% (W/V), time 24 h) was 1,000 or less cfu/mL, the “Count of viable bacteria” value ([5]; silver ions 1 mg/L, regenerated collagen powder 0% (W/V), time 1 h) was 6.2 × 10^7 cfu/mL and the “Count of viable bacteria” value ([5]; silver ions 1 mg/L, regenerated collagen powder 0% (W/V), time 3 h) was 6.7 × 10^7 cfu/mL. For the same compound, the “Count of viable bacteria” value ([5]; silver ions 1 mg/L, regenerated collagen powder 0% (W/V), time 8 h) was 2.4 × 10^7 cfu/mL, the “Count of viable bacteria” value ([5]; silver ions 1 mg/L, regenerated collagen powder 0% (W/V), time […]) was 8.1 × 10^7 cfu/mL and the “Count of viable bacteria” value ([5]; silver ions 1 mg/L, regenerated collagen powder 4% (W/V), time 1 h) was 9.9 × 10^6 cfu/mL. For the same compound, the “Count of viable bacteria” value ([5]; silver ions 1 mg/L, regenerated collagen powder 4% (W/V), time 3 h) was 1.4 × 10^5 cfu/mL, the “Count of viable bacteria” value ([5]; silver ions 1 mg/L, regenerated collagen powder 4% (W/V), time 8 h) was ≤ 1.0 × 10^3 cfu/mL and the “Count of viable bacteria” value ([5]; silver ions 1 mg/L, regenerated collagen powder 4% (W/V), time […]) was 4.7 × 10^4 cfu/mL. The “count of viable Escherichia coli” value ([5]; silver ions 5 mg/L, 1% (W/V) or more of allophane) was under 1000 cfu/ml, the “Count of viable bacteria” value ([5]; silver ions 5 mg/L, allophane 0% (W/V), last time point (24 h, time cell misprinted)) was 1000 or less cfu/mL and the “Count of viable bacteria” value ([5]; silver ions 5 mg/L, allophane 0% (W/V), time 0 h) was 10,800,000 cfu/mL. For the same compound, the “Count of viable bacteria” value ([5]; silver ions 5 mg/L, allophane 0% (W/V), time 1 h) was 6,000,000 cfu/mL, the “Count of viable bacteria” value ([5]; silver ions 5 mg/L, allophane 0% (W/V), time 3 h) was 29,000 cfu/mL and the “Count of viable bacteria” value ([5]; silver ions 5 mg/L, allophane 1% (W/V), last time point (24 h, time cell misprinted)) was 1,000 or less cfu/mL. For the same compound, the “Count of viable bacteria” value ([5]; silver ions 5 mg/L, allophane 1% (W/V), time 0 h) was 10,800,000 cfu/mL, the “Count of viable bacteria” value ([5]; silver ions 5 mg/L, allophane 1% (W/V), time 1 h) was 1,000 or less cfu/mL and the “Count of viable bacteria” value ([5]; silver ions 5 mg/L, allophane 1% (W/V), time 3 h) was 1,000 or less cfu/mL. For the same compound, the “Count of viable bacteria” value ([5]; silver ions 5 mg/L, allophane 4% (W/V), last time point (24 h, time cell misprinted)) was 1,000 or less cfu/mL, the “Count of viable bacteria” value ([5]; silver ions 5 mg/L, allophane 4% (W/V), time 0 h) was 10,800,000 cfu/mL and the “Count of viable bacteria” value ([5]; silver ions 5 mg/L, allophane 4% (W/V), time 1 h) was 1,000 or less cfu/mL. For the same compound, the “Count of viable bacteria” value ([5]; silver ions 5 mg/L, allophane 4% (W/V), time 3 h) was 1,000 or less cfu/mL, the “Count of viable bacteria” value ([5]; silver ions 5 mg/L, allophane 8% (W/V), last time point (24 h, time cell misprinted)) was 1,000 or less cfu/mL and the “Count of viable bacteria” value ([5]; silver ions 5 mg/L, allophane 8% (W/V), time 0 h) was 10,800,000 cfu/mL. The “Count of viable bacteria” value ([5]; silver ions 5 mg/L, allophane 8% (W/V), time 1 h) was 1,000 or less cfu/mL, the “Count of viable bacteria” value ([5]; silver ions 5 mg/L, allophane 8% (W/V), time 3 h) was 1,000 or less cfu/mL and the “MIC of silver ions” value ([2]; 0.5 to 1% (W/V) of allophane contained) was 0.5 µg/mL. For the same compound, the “MIC of silver ions” value ([2]; 2% (W/V) of allophane contained) was 0.125 µg/mL, the “MIC of silver ions” value ([2]; 4% (W/V) of allophane contained) was 0.0313 µg/mL and the “MIC of silver ions” value ([2]; allophane not contained) was “about 1 mg/L”.

In the case of O.O.O.O.O.O.O.O=S(=O)([O-])[O-].[Zn+2] [zinc ions, zinc sulfate heptahydrate], the “MIC decrease relative to no allophane (fraction)” value [1] is reported as “about ⅛”, the “antibacterial property” value [1] is reported as “improved” and the “antibacterial property” value [2] is reported as “did not improve”. The “antibacterial property” value [3] was “did not improve” and the “antibacterial property” value [4] was “improved”.
